Measurements reported in patent US20070025914A1, “Bronchioalveolar stem cells and uses thereof” (priority 2005, published 2007).
Several values for one entry are separate records, joined by “and”; a condition that tells them apart may be missing. Equal entries are not always repeated.

What was measured:
BASCs [1] = assay: BASC number per terminal bronchiole by dual IF for CCA and SP-C after naphthalene treatment
Procedure: To determine if airway damage affects BASCs, dual IF for CCA and SP-C is performed at various time points after naphthalene treatment. […] BrdU administered prior to euthanasia is used to determine if BASCs proliferate in response to naphthalene.
Lox-stop-lox K-ras G12D mice (Jackson et al. (2001) Genes Dev. 15, 3243-3248) and wild-type littermates were maintained in viral-free conditions on an F1 129 SvJ/C57BI6 background. Four- to eight-week-old mice were used for FACS or intranasal infections as described (Jackson et al. (2001) Genes Dev. 15, 3243-3248). Naphthalene (Aldrich) was dissolved in MAZOLA corn oil and injected i.p. at 275 mg/kg using sex- and background-matched control mice. […] 30 mg/kg BrdU in PBS was injected i.p. 2 hr before euthanasia for proliferation studies. Tissue preparation was as described (Jackson et al., 2001, supra). BASCs were quantified by scoring sections from at least three mice for each condition.

BASCs [2] = assay: BrdU proliferation at the BADJ after naphthalene; assay type: in vivo, mouse; conditions: all SP-Cpos CCApos
AT2 cells = assay: AdGFP infection followed by IF for SP-C or CCA after naphthalene; assay type: in vivo, mouse; conditions: 24 hr after AdGFP; control 7.8%; no significant increase
From the text: FIG. 7A). An even greater impact on tumor area was associated with naphthalene treatment; adenomas comprised a 6-, 12-, and 15-fold greater proportion of total lung area when initiated after airway damage in the three experiments (p=0.009; FIG. 7B).

Lox-K-ras lung tumors = assay: Naphthalene treatment before AdCre in LSL-K-ras G12D mice: tumor number and area; assay type: in vivo, mouse; conditions: 6 weeks, three independent experiments, p=0.04
Procedure: We reasoned that the cellular requirements for adenocarcinoma formation could be dissected further by combining K-ras G12D activation with naphthalene treatment, which stimulates proliferation of BASCs in vivo (see FIG. 2). LSL-K-ras G12D mice and wild-type controls were treated with naphthalene; tumorigenesis was initiated by administering AdCre 24 hr to 3 days later, and mice were euthanized after 6 weeks to determine tumor incidence and size.
An even greater impact on tumor area was associated with naphthalene treatment; adenomas comprised a 6-, 12-, and 15-fold greater proportion of total lung area when initiated after airway damage in the three experiments (p=0.009; FIG. 7B).

[3] = tested on: BASCs (Sca-1pos CD45neg Pecamneg cells); assay: FACS analysis of BASC abundance after naphthalene treatment; assay type: in vivo, mouse
BASCs [4] = assay: BASC incidence after intranasal bleomycin; assay type: in vivo, mouse
Procedure: Bleomycin is administered intranasally, and at various time points after treatment, the incidence of BASCs is determined.

number of BASCs after naphthalene (BASCs [1]; any time point after naphthalene) | Clara cell loss (BASCs [1]; by 52 hr after naphthalene) | Molecule | terminal bronchioles with two or more BASCs (BASCs [1]; 1 week after naphthalene 275 mg/kg i.p., controls 16%±5%, p=0.03) | number of BASCs per BADJ (BASCs [1]; six to seven weeks after naphthalene) | time at which BrdUpos cells are first detected in the BADJ (BASCs [2]) | infected (GFPpos) cells that were SP-Cpos (AT2 cells) | fold more tumors vs controls (corn oil, AdCre) (Lox-K-ras lung tumors) | abundance of BASCs, fold increase vs corn oil control ([3]; 1 week after treatment, p=0.04) | abundance of BASCs ([3]; 24 hr after naphthalene) | BASC distribution (BASCs [4]; 7 days after bleomycin) | BASC numbers (BASCs [4]; 14 days after bleomycin, p=0.01) | BASC distribution (BASCs [4]; 28 days after bleomycin)
did not significantly decrease | significant Clara cell loss | c1ccc2ccccc2c1 [naphthalene, Naphthalene] | 30%±9% | comparable to that in untreated lung | 52 h | 10.5% | 1.3 fold and 2.2 fold and 2.3 fold | 1.3 fold | did not change | – | – | –
– | – | Bleomycin | – | – | – | – | – | – | – | significantly different neither | Significant increases | significantly different neither
